In patent publication US20240307283A1, “COMPOSITIONS AND METHODS FOR DECREASING PIGMENTATION” (The General Hospital Corporation, priority 2021, published 2024):

Experiments:
human skin explants = assay: Pigmentation of human skin explants with topical NNT inhibitors
NNT = target: T1, NNT (Homo sapiens, UniProt Q13423); assay: GSH/GSSG ratio (indirect endpoint of NNT enzyme activity) in primary melanocytes; assay type: cell-based; parameters: endogenous in cells; host or cells: primary human melanocytes (isolated from neonatal foreskins); conditions: different doses, 24 hours
T1 sequence (Q13423 44-1086): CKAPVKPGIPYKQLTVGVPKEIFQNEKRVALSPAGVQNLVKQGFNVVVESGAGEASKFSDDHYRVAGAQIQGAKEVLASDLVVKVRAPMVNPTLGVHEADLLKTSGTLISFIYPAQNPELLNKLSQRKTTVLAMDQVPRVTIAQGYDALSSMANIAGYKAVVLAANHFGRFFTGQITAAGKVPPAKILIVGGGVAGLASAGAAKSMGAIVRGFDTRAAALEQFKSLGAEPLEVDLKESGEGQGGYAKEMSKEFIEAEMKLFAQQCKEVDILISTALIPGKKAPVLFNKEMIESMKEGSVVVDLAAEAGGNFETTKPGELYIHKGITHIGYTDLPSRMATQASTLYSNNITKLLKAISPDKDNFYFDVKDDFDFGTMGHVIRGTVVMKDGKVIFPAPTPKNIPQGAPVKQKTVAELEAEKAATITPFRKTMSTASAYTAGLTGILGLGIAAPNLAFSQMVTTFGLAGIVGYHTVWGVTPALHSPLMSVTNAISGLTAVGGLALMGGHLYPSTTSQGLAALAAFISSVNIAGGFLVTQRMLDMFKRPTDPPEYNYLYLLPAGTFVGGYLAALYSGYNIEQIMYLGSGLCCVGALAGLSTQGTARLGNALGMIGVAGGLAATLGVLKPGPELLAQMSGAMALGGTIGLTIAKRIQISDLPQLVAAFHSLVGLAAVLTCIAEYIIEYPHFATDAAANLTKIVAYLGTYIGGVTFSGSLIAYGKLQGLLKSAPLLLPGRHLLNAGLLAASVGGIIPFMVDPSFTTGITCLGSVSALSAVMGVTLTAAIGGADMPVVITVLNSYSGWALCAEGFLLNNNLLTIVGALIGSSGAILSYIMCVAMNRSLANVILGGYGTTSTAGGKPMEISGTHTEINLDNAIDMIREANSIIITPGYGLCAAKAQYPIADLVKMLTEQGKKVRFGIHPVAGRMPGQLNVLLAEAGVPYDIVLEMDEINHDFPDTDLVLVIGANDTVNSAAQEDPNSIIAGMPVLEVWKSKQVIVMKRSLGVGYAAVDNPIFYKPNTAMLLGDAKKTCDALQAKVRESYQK
Method: Glutathione measurements: Cell lysates were prepared from equal numbers of cells after 24 h of DCC or 2,3BD treatment, following the manufacturer's protocols. Seventy-two h post siRNA treatment or overexpression of NNT and their corresponding controls, glutathione levels were determined using the GSH/GSSG-Glo assay (Promega, #V6611) and luminescence was measured using an EnVision 2104 Multilabel Reader (PerkinElmer).

zebrafish melanocytes = assay: Chemical treatment of zebrafish, melanocytic brightness; assay type: in vivo; conditions: 24 hours, 100 μM 2,3BD or 50 μM DCC
Method: Wildtype Tübingen zebrafish were placed in a 24 well plate at 72 hours post-fertilization, with 10 larvae per well for a total twenty larvae per condition. Larvae were treated for 24 hours with either 2,3BD (1 μM, 10 μM, 100 μM, 1 mM; Sigma Aldrich, #B85307), DCC (1 μM, 10 μM, 50 μM, 100 μM; Sigma Aldrich, #D80002), or DMSO (1:500) in E3 embryo medium. At 4 days post fertilization, larvae were imaged using a Nikon SMZ18 Stereomicroscope. Melanocytes from at least 5 zebrafish embryos of each group for each experiment were analyzed using the FIJI software enabling pixel-based color quantification.

Question: Which “melanin by Fontana-Masson staining” value (human skin explants; 2,3BD treated skin, FIGS. 3Ei and 10F) does the source give for CC(=O)C(C)=O [2,3BD, 2,3-Butanedione] here?
Answer: The value was “increased melanin”.

Question: What about the “cell damage or inflammation by H&E staining” value (human skin explants; FIG. 3Eii) of the same compound?
Answer: Its value is “no obvious cell damage or inflammation”.

Question: And the skin pigmentation (human skin explants; abdominal skin, phototype 1-2, single topical treatment 1M or 11M, after 5 days)?
Answer: The skin pigmentation was “strong induction of pigmentation”.

Question: And the skin pigmentation (human skin explants; daily application of 50 mM, skin type 3-4, after 5 days)?
Answer: The skin pigmentation was “significantly increased pigmentation”.

Question: What about the GSH/GSSG ratio (NNT) of the same compound?
Answer: Its GSH/GSSG ratio is “decreased GSH/GSSG ratios”.

Question: And the “darkening of zebrafish embryos (melanocytic brightness)” value (zebrafish melanocytes)?
Answer: Its value is “significant darkening”.
